Legend:
[1] = test system: Fibrillin2 gene expression in pancreatic cancer cell line PANC-1; assay: Effect of methylation inhibitor on expression of Fibrillin2 gene (Real Time PCR of mRNA-derived DNA) in PANC-1; format: cell-based, human; conditions: added on first and third day after seeding, cells recovered on fourth day
Method: (§1) seven kinds of human-derived pancreatic cancer cell lines (BXPc3, HPAF-II, Capan-2, MiaPaCa-2, Hs766T, PANC-1 and HPAC) and immortal (normal) pancreatic ductal epithelial cells lines (HPDE-4/E6E7 and HPDE6-E6E7c7) were cultured to 70% confluent in an exclusively used medium, and thereafter, each cell was corrected. 1 ml of an ISOGEN solution (Nippon Gene) was mixed with collected each cell (wet weight about 100 mg), this was homogenized, and 0.2 ml of chloroform was added thereto to suspend them. After suspending, the mixture was centrifuged (4° C., 15000×g, 15 minutes) to recover the supernatant. […]
(§2) A reaction solution of PCR was used which was obtained by mixing 50 ng of a cDNA as a template, each 1 μl of two kinds of 10 pmol/μl aforementioned primer solution, 4 μl of 2.5 mM dNTP, 4 μl of 5 mM dUTP, 5 μl of 10×SYBR Green PCR Buffer, 6 μl of 25 mM MgCl2 and 0.3 μl of a 5U/μl thermos table DNA polymerase (AmpliTaq Gold), 0.5 μl of AmpEraseUNG and adding sterilized ultrapure water thereto to an amount of solution of 50 μl. […] When a DNA derived from mRNA of Fibrillin2 gene and GAPDH gene was amplified, after the reaction solution was retained at 95° C. for 10 minutes, Real Time PCR was performed at the conditions under which each cycle was 30 seconds at 95° C., 30 seconds at 59° C. and 30 seconds at 72° C. to quantitate Fibrillin2 gene and GAPDH gene.

[2] = test system: Fibrillin2 gene expression in pancreatic cancer cell line HPAC; assay: Effect of methylation inhibitor on expression of Fibrillin2 gene (Real Time PCR of mRNA-derived DNA) in HPAC; format: cell-based, human; conditions: added on first and third day after seeding, cells recovered on fourth day
Method: as §1, §2

Measured: DNA derived from a mRNA of Fibrillin2 gene (expression of Fibrillin2 gene)

Nc1ncn([C@H]2C[C@H](O)[C@@H](CO)O2)c(=O)n1 [5Aza-dC, 5-aza-2′-deoxytidine]
detected: [1]; PANC-1 cultured in the presence of 0.5 μM 5Aza-dC | [1]; PANC-1 cultured in the presence of 1 μM 5Aza-dC | [2]; HPAC cultured in the presence of 0.5 μM 5Aza-dC | [2]; HPAC cultured in the presence of 1 μM 5Aza-dC

Source: patent US20070135366A1, “Method for assessing cancerous state” (SUMITOMO CHEMICAL COMPANY, LIMITED., priority 2003, published 2007)
